# Test results: BindingDB's records for doi:10.1016/s0960-894x(03)00789-3 (Wyeth Research, 2003)
# Molecular target: Human cytomegalovirus protease (assemblin, UL80)
# Assay: In vitro inhibitory activity against HCMV (human cytomegalovirus) protease using scintillation proximity assay
row,Structure (SMILES),IC50
1,"Cc1nc2nnc(C(C)(C)C)nn2c(=O)c1C [3-tert-Butyl-7,8-dimethyl-pyrimido[1,2-b][1,2,4,5]tetrazin-6-one]",0.6 µM
2,"Cc1nc2nnc(C(c3ccccc3)c3ccccc3)nn2c(=O)c1C [3-Benzhydryl-7,8-dimethyl-pyrimido[1,2-b][1,2,4,5]tetrazin-6-one]",1.7 µM
3,"COc1ccc(-c2nnc3nc(C)c(C)c(=O)n3n2)cc1 [3-(4-Methoxy-phenyl)-7,8-dimethyl-pyrimido[1,2-b][1,2,4,5]tetrazin-6-one]",0.5 µM
4,"Cc1nc2nnc(-c3ccc([N+](=O)[O-])cc3)nn2c(=O)c1C [7,8-Dimethyl-3-(4-nitro-phenyl)-pyrimido[1,2-b][1,2,4,5]tetrazin-6-one]",1.7 µM
5,"Cc1nnc2nc(C)c(C)c(=O)n2n1 [3,7,8-Trimethyl-pyrimido[1,2-b][1,2,4,5]tetrazin-6-one]",0.3 µM

# More lines, now with the values ahead:
row,IC50,Structure (SMILES)
1,0.3 µM,"Cc1ccc(-c2nnc3nc(C)c(C)c(=O)n3n2)cc1 [7,8-Dimethyl-3-p-tolyl-pyrimido[1,2-b][1,2,4,5]tetrazin-6-one]"
2,0.1 µM,"Cc1nc2nncnn2c(=O)c1C [7,8-Dimethyl-pyrimido[1,2-b][1,2,4,5]tetrazin-6-one]"
3,0.4 µM,"Cc1nc2nnc(-c3ccccc3)nn2c(=O)c1C [7,8-Dimethyl-3-phenyl-pyrimido[1,2-b][1,2,4,5]tetrazin-6-one]"
